What was measured:
Assay in all cases: relative viability (nuclei count vs DMSO), 5 days (fraction); higher = more cells survive
NCI-H838 = system: NCI-H838
How it was run: (§1)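 Relative viability divides the nuclei count in treated wells by that in vehicle wells. Lung cancer cell lines were seeded in 1536-well plates, dosed by pin tool the next day, and fixed and stained after 5 days in one step with final 0.05% Triton X-100, 1% formaldehyde and 1 ug/ml Hoechst. Dosing was a single drug or a fixed anchor-drug dose plus five library-drug doses (not always all listed) in √10 steps, and values are medians of duplicate plates imaged at 4×.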

CAL-12T = system: CAL-12T
How it was run: as §1

NCI-H1734 = system: NCI-H1734
How it was run: as §1

NCI-H3122 = system: NCI-H3122
How it was run: as §1

NCI-H1975 = system: NCI-H1975
How it was run: as §1

HCC-366 = system: HCC-366
How it was run: as §1

NCI-H647 = system: NCI-H647
How it was run: as §1

SK-LU-1 = system: SK-LU-1
How it was run: as §1

LC-2-ad = system: LC-2-ad
How it was run: as §1

H3255 = system: H3255
How it was run: as §1

LU99A = system: LU99A
How it was run: as §1

NCI-H1563 = system: NCI-H1563
How it was run: as §1

NCI-H1944 = system: NCI-H1944
How it was run: as §1

NCI-H1666 = system: NCI-H1666
How it was run: as §1

HCC-15 = system: HCC-15
How it was run: as §1

PC-3 [JPC-3] = system: PC-3 [JPC-3]
How it was run: as §1

NCI-H1993 = system: NCI-H1993
How it was run: as §1

NCI-H1395 = system: NCI-H1395
How it was run: as §1

PC-14 = system: PC-14
How it was run: as §1

COR-L 105 = system: COR-L 105
How it was run: as §1

HARA = system: HARA
How it was run: as §1

## COCC1(CO)C(=O)C2CCN1CC2 (stereo not drawn) [PRIMA-1MET] + COc1cc2c(Oc3ccc(NC(=O)C4(C(=O)Nc5ccc(F)cc5)CC4)cc3F)ccnc2cc1OCCCN1CCOCC1 [Foretinib] (partner 0.25 µM)
NCI-H838; first compound 0.2 µM
  relative viability: 1.23
NCI-H838; first compound 0.6325 µM
  relative viability: 0.822
NCI-H838; first compound 2 µM
  relative viability: 1.02
NCI-H838; first compound 6.325 µM
  relative viability: 1.07
NCI-H838; first compound 20 µM
  relative viability: 0.683
CAL-12T; first compound 0.2 µM
  relative viability: 1.33
CAL-12T; first compound 0.6325 µM
  relative viability: 1.23
CAL-12T; first compound 2 µM
  relative viability: 1
CAL-12T; first compound 6.325 µM
  relative viability: 1.16
CAL-12T; first compound 20 µM
  relative viability: 0.939
NCI-H1734; first compound 0.2 µM
  relative viability: 1.04
NCI-H1734; first compound 0.6325 µM
  relative viability: 0.741
NCI-H1734; first compound 2 µM
  relative viability: 0.741
NCI-H1734; first compound 6.325 µM
  relative viability: 0.759
NCI-H1734; first compound 20 µM
  relative viability: 0.0666
NCI-H3122; first compound 0.2 µM
  relative viability: 0.739
NCI-H3122; first compound 0.6325 µM
  relative viability: 0.762
NCI-H3122; first compound 2 µM
  relative viability: 0.963
NCI-H3122; first compound 6.325 µM
  relative viability: 0.984
NCI-H3122; first compound 20 µM
  relative viability: 0.882
NCI-H1975; first compound 0.2 µM
  relative viability: 1.07
NCI-H1975; first compound 0.6325 µM
  relative viability: 0.958
NCI-H1975; first compound 2 µM
  relative viability: 0.916
NCI-H1975; first compound 6.325 µM
  relative viability: 1.01
NCI-H1975; first compound 20 µM
  relative viability: 0.626
HCC-366; first compound 0.2 µM
  relative viability: 0.84
HCC-366; first compound 0.6325 µM
  relative viability: 0.946
HCC-366; first compound 2 µM
  relative viability: 0.826
HCC-366; first compound 6.325 µM
  relative viability: 0.974
HCC-366; first compound 20 µM
  relative viability: 0.207
NCI-H647; first compound 0.2 µM
  relative viability: 1.29
NCI-H647; first compound 0.6325 µM
  relative viability: 0.973
NCI-H647; first compound 2 µM
  relative viability: 1.08
NCI-H647; first compound 6.325 µM
  relative viability: 1.22
NCI-H647; first compound 20 µM
  relative viability: 1.16
SK-LU-1; first compound 0.2 µM
  relative viability: 1
SK-LU-1; first compound 0.6325 µM
  relative viability: 0.863
SK-LU-1; first compound 2 µM
  relative viability: 0.885
SK-LU-1; first compound 6.325 µM
  relative viability: 0.834
SK-LU-1; first compound 20 µM
  relative viability: 0.405
LC-2-ad; first compound 0.2 µM
  relative viability: 0.987
LC-2-ad; first compound 2 µM
  relative viability: 0.843
LC-2-ad; first compound 6.325 µM
  relative viability: 0.887
LC-2-ad; first compound 20 µM
  relative viability: 0.966
H3255; first compound 0.2 µM
  relative viability: 0.822
H3255; first compound 0.6325 µM
  relative viability: 0.947
H3255; first compound 2 µM
  relative viability: 0.807
H3255; first compound 6.325 µM
  relative viability: 1.05
H3255; first compound 20 µM
  relative viability: 0.924
LU99A; first compound 0.2 µM
  relative viability: 0.84
LU99A; first compound 0.6325 µM
  relative viability: 0.806
LU99A; first compound 2 µM
  relative viability: 0.813
LU99A; first compound 6.325 µM
  relative viability: 0.913
LU99A; first compound 20 µM
  relative viability: 0.394
NCI-H1563; first compound 0.2 µM
  relative viability: 1.05
NCI-H1563; first compound 0.6325 µM
  relative viability: 1
NCI-H1563; first compound 2 µM
  relative viability: 0.838
NCI-H1563; first compound 6.325 µM
  relative viability: 0.911
NCI-H1563; first compound 20 µM
  relative viability: 0.288
NCI-H1944; first compound 0.2 µM
  relative viability: 1.02
NCI-H1944; first compound 0.6325 µM
  relative viability: 0.789
NCI-H1944; first compound 2 µM
  relative viability: 0.837
NCI-H1944; first compound 6.325 µM
  relative viability: 0.881
NCI-H1944; first compound 20 µM
  relative viability: 0.861
NCI-H1666; first compound 0.2 µM
  relative viability: 0.959
NCI-H1666; first compound 0.6325 µM
  relative viability: 0.906
NCI-H1666; first compound 2 µM
  relative viability: 0.942
NCI-H1666; first compound 6.325 µM
  relative viability: 0.952
NCI-H1666; first compound 20 µM
  relative viability: 0.908
HCC-15; first compound 0.2 µM
  relative viability: 1.11
HCC-15; first compound 0.6325 µM
  relative viability: 0.986
HCC-15; first compound 2 µM
  relative viability: 1.03
HCC-15; first compound 6.325 µM
  relative viability: 1.02
HCC-15; first compound 20 µM
  relative viability: 0.555
PC-3 [JPC-3]; first compound 0.2 µM
  relative viability: 1.12
PC-3 [JPC-3]; first compound 0.6325 µM
  relative viability: 0.942
PC-3 [JPC-3]; first compound 2 µM
  relative viability: 1.05
PC-3 [JPC-3]; first compound 6.325 µM
  relative viability: 1.07
PC-3 [JPC-3]; first compound 20 µM
  relative viability: 0.935
NCI-H1993; first compound 0.2 µM
  relative viability: 0.875
NCI-H1993; first compound 0.6325 µM
  relative viability: 0.767
NCI-H1993; first compound 2 µM
  relative viability: 0.657
NCI-H1993; first compound 6.325 µM
  relative viability: 0.803
NCI-H1993; first compound 20 µM
  relative viability: 0.754
NCI-H1395; first compound 0.2 µM
  relative viability: 1.03
NCI-H1395; first compound 0.6325 µM
  relative viability: 0.652
NCI-H1395; first compound 2 µM
  relative viability: 1.05
NCI-H1395; first compound 6.325 µM
  relative viability: 1
NCI-H1395; first compound 20 µM
  relative viability: 0.971
PC-14; first compound 0.2 µM
  relative viability: 1.01
PC-14; first compound 0.6325 µM
  relative viability: 0.87
PC-14; first compound 2 µM
  relative viability: 0.931
PC-14; first compound 6.325 µM
  relative viability: 1.12
PC-14; first compound 20 µM
  relative viability: 0.914
COR-L 105; first compound 0.2 µM
  relative viability: 1.48
COR-L 105; first compound 0.6325 µM
  relative viability: 1.02
COR-L 105; first compound 2 µM
  relative viability: 1.17
COR-L 105; first compound 6.325 µM
  relative viability: 1.2
COR-L 105; first compound 20 µM
  relative viability: 0.551
HARA; first compound 0.2 µM
  relative viability: 1
HARA; first compound 0.6325 µM
  relative viability: 0.881
HARA; first compound 6.325 µM
  relative viability: 0.742
HARA; first compound 20 µM
  relative viability: 0.704

Source: the supplement of paper PMC10307832
